From US7138361B2, “Herbicidal heterocycles” (E. I. du Pont de Nemours and Company, priority 2000, dated 2006)

Key:
Assay type in all cases: in vivo
[1] = system: wheat (Triticum aestivum); test: Test B postemergence; conditions: Rate 500 g/ha, scale 0 to 100, 0 is no effect, 100 is complete control, 13 to 15 days
Outline: (§1)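 Ratings on a 0 to 100 visual scale (100 complete control) compare treated plants with controls 13 to 15 days after application. Treatments were pre- or postemergence sprays of compound in non-phytotoxic solvent with surfactant.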

[2] = system: barnyardgrass (Echinochloa crus-galli); test: Test B postemergence; conditions: 13 to 15 days
Outline: as §1

corn (Zea mays) [3] = test: Test B postemergence; conditions: 13 to 15 days
Outline: as §1

wild oat (Avena fatua) = test: Test B postemergence; conditions: Rate 500 g/ha, scale 0 to 100, 0 is no effect, 100 is complete control, 13 to 15 days
Outline: as §1

Sunflower = test: Test C preemergence; conditions: Rate 250 g/ha, scale 0 to 100, 0 no effect, 100 complete control
[4] = system: duck salad (Heteranthera limosa); test: Test C flooded paddy test; conditions: for Ducksalad plant response rating: Flooded Paddy, scale 0 to 100, 0 no effect, 100 complete control; for Plant response rating, Ducksalad: flooded paddy test, scale 0 to 100 (0 no effect, 100 complete control)
Outline: (§2)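 Each species was cultivated to 2 leaves in flooded paddy pots, then treated. After a greenhouse period of 12–14 days, the plants were scored visually relative to controls from 0 (no effect) to 100 (complete control).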

rice (Oryza saliva) = test: Test C flooded paddy test; conditions: for Rice plant response rating: Flooded Paddy, scale 0 to 100, 0 no effect, 100 complete control; for Plant response rating, Rice: flooded paddy test, scale 0 to 100 (0 no effect, 100 complete control)
Outline: as §2

[5] = system: barnyardgrass (Echinochloa crus-galli); test: Test C flooded paddy test; conditions: for Barnyardgrass plant response rating: Flooded Paddy, scale 0 to 100, 0 no effect, 100 complete control; for Plant response rating, Barnyardgrass: flooded paddy test, scale 0 to 100 (0 no effect, 100 complete control)
Outline: as §2

[6] = system: smallflower flatsedge (Cyperus difformis); test: Test C flooded paddy test; conditions: for Flatsedge plant response rating: Flooded Paddy, scale 0 to 100, 0 no effect, 100 complete control; for Plant response rating, Flatsedge: flooded paddy test, scale 0 to 100 (0 no effect, 100 complete control)
Outline: as §2

[7] = system: yellow nutsedge (Cyperus esculentus); test: Test C preemergence
Outline: (§3)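 Seeds are planted and treated before emergence; for the postemergence test, plants at 1- to 4-leaf stage (2–18 cm) receive the same formulation, a solvent blend containing surfactant. Plants stay in the greenhouse 12–14 days, then response is scored visually from 0 (none) to 100 (complete control).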

kochia (Kochia scoparia) = test: Test C preemergence
Outline: as §3

[8] = system: pigweed (Amaranthus retroflexus); test: Test C preemergence
Outline: as §3

Nightshade [9] = test: Test C preemergence
[10] = system: lambsquarters (Chenopodium album); test: Test C preemergence
Outline: as §3

[11] = system: woolly cupgrass (Eriochloa villosa); test: Test C preemergence
Outline: as §3

corn (Zea mays) [12] = test: Test C preemergence; conditions: preemergence
Outline: as §3

soybean (Glycine max) = test: Test C preemergence
Outline: as §3

[13] = system: johnsongrass (Sorghum halepense); test: Test C preemergence
Outline: as §3

Nightshade [14] = test: Test C preemergence; conditions: Rate 500 g/ha, visual evaluation after 12 to 14 days
[15] = Rate 125 g/ha, scale 0 (no effect) to 100 (complete control)
[16] = Rate 500 g/ha, scale 0 to 100, 0 is no effect, 100 is complete control
[17] = Rate 125 g/ha, scale 0 to 100, 0 no effect, 100 complete control
[18] = preemergence, Rate 62 g/ha, scale 0 to 100
[19] = preemergence, Rate 500 g/ha, visual evaluation after 12 to 14 days
[20] = preemergence, Rate 250 g/ha, scale 0 to 100, 0 no effect, 100 complete control
[21] = Rate 250 g/ha, scale 0 to 100, 0 no effect, 100 complete control

CCCC(C)c1ccn(C2CCN(c3cccc(C(F)(F)F)c3)C2=O)n1 (stereo not shown) [Compound 100]
60: Barnyardgrass plant response rating ([5]; Rate 500 g/ha)
90: Flatsedge plant response rating ([6]; Rate 500 g/ha) | Plant response rating, Kochia (kochia (Kochia scoparia); [20]) | Plant response rating, Lambsquarters [10, 18] | Plant response rating, Johnsongrass [13, 17] | Plant response rating, Johnsongrass [13, 20]
40: Ducksalad plant response rating ([4]; Rate 500 g/ha)
0: Plant response rating, Wheat [1] | Plant response rating, Barnyardgrass [2, 15] | Plant response rating, Barnyardgrass [2, 16] | Plant response rating, Corn (corn (Zea mays) [3]; [15]) | Plant response rating, Corn (corn (Zea mays) [3]; [16]) | Plant response rating, Wild Oat (wild oat (Avena fatua)) | Plant response rating, Sunflower (Sunflower) | Ducksalad plant response rating ([4]; Rate 250 g/ha) | Plant response rating, Ducksalad ([4]; Rate 62 g/ha) | Plant response rating, Ducksalad ([4]; Rate 125 g/ha) | Plant response rating, Rice (rice (Oryza saliva); Rate 62 g/ha) | Barnyardgrass plant response rating ([5]; Rate 250 g/ha) | Plant response rating, Barnyardgrass ([5]; Rate 62 g/ha) | Plant response rating, Barnyardgrass ([5]; Rate 125 g/ha) | Plant response rating, Nutsedge [7, 17] | Plant response rating, Nutsedge [7, 18] | Plant response rating (0 to 100), Nutsedge [7, 19] | Plant response rating, Nutsedge [7, 20] | Plant response rating, Kochia (kochia (Kochia scoparia); [17]) | Plant response rating, Kochia (kochia (Kochia scoparia); [18]) | Plant response rating, Pigweed [8, 17] | Plant response rating, Pigweed [8, 18] | Plant response rating, Nightshade (Nightshade [9]; Rate 62 g/ha, scale 0 to 100) | Plant response rating, Nightshade (Nightshade [9]; [17]) | Plant response rating, Nightshade (Nightshade [9]; [21]) | Plant response rating, Cupgrass, Woolly [11, 18] | Plant response rating, Soybean (soybean (Glycine max); [17]) | Plant response rating, Soybean (soybean (Glycine max); [18]) | Plant response rating (0 to 100), Soybean (soybean (Glycine max); [19]) | Plant response rating, Soybean (soybean (Glycine max); [20]) | Plant response rating, Johnsongrass [13, 18] | Plant response rating (0 to 100), Nightshade (Nightshade [14])
50: Rice plant response rating (rice (Oryza saliva); Rate 250 g/ha) | Plant response rating, Rice (rice (Oryza saliva); Rate 125 g/ha)
80: Rice plant response rating (rice (Oryza saliva); Rate 500 g/ha)
20: Plant response rating, Pigweed [8, 20] | Plant response rating, Cupgrass, Woolly [11, 17] | Plant response rating, Cupgrass, Woolly [11, 20] | Plant response rating, Corn (corn (Zea mays) [12]; Rate 62 g/ha, scale 0 to 100) | Plant response rating (0 to 100), Corn (corn (Zea mays) [12]; Rate 500 g/ha, visual evaluation after 12 to 14 days) | Plant response rating, Corn (corn (Zea mays) [12]; [21])
100: Plant response rating (0 to 100), Kochia (kochia (Kochia scoparia); [19]) | Plant response rating (0 to 100), Pigweed [8, 19] | Plant response rating, Lambsquarters [10, 17] | Plant response rating (0 to 100), Lambsquarters [10, 19] | Plant response rating, Lambsquarters [10, 20] | Plant response rating (0 to 100), Cupgrass, Woolly [11, 19] | Plant response rating (0 to 100), Johnsongrass [13, 19]
70: Flatsedge plant response rating ([6]; Rate 250 g/ha) | Plant response rating, Flatsedge ([6]; Rate 62 g/ha) | Plant response rating, Flatsedge ([6]; Rate 125 g/ha)
